Among the test systems are HCT-15; SR; HCT-116; SF-295; Malme-3M; MCF7; NCI-H226; UACC-62; SNB-75; OVCAR-5; IGROV-1; OVCAR-3; K562; MDA-MB-435; EKVX; KM-20L2; CAKI-1; 786-0; T47D; HL-60.
What all share (assay): growth of human tumour cells (NCI), 48 h

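96-well plates; 48 h exposure; 5 concentrations. Endpoints by linear interpolation between flanking doses. Not reached: highest tested concentration assigned. Here, GI50 denotes the concentration required for 50% inhibition of growth.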 Calls of active or inactive are those of the source. Rule as the data show it: active = GI50 up to about 1.1 µM and inactive = higher.

Take `O=C1c2nc3n(c2C(=O)c2c1nc1n2CCC1)CCC3`: the GI50 was 5.79 µM in the assay with HCT-15; 3.01 µM (inactive) in the assay on SR; 3.03 µM (inactive) in the assay on HCT-116; 5.37 µM (inactive) in the assay on SF-295; 0.904 µM (active) in the assay with Malme-3M; 2.68 µM (inactive) with MCF7. Moreover, the GI50 with NCI-H226 is 6.97 µM (inactive); with UACC-62, 1.85 µM (inactive); with SNB-75, 15.2 µM (inactive); in the assay with OVCAR-5, 16.9 µM (inactive); in the assay on IGROV-1, 11.5 µM (inactive); in the assay with OVCAR-3 it was 2.71 µM (inactive). Moreover, the GI50 was 13 µM (inactive) with K562; 2.02 µM (inactive) with MDA-MB-435; 15.6 µM (inactive) in the assay with EKVX; 3.61 µM (inactive) with KM-20L2; 9.35 µM (inactive) in the assay with CAKI-1; 5.25 µM (inactive) in the assay on 786-0. Besides, the GI50 with T47D is > 10 µM (inactive).

For the molecule `CC12OOC(c3ccccc31)c1c2ccc2ccccc12` (stereo not given), the GI50 in the assay with HCT-15 was 2.17 µM; in the assay with SR, 0.807 µM (active); in the assay with HCT-116, 1.73 µM (inactive); in the assay with SF-295 it was 7.11 µM (inactive); with Malme-3M it was 2.3 µM (inactive); in the assay with MCF7, 13.2 µM (inactive). The GI50 with NCI-H226 is 18.7 µM (inactive); in the assay on UACC-62, 8.26 µM (inactive); in the assay with SNB-75 it was 8.47 µM (inactive); with OVCAR-5 it was 19.5 µM (inactive); with IGROV-1, 1.53 µM (inactive); with OVCAR-3, 2.26 µM (inactive). The GI50 in the assay with K562 is 1.65 µM (inactive); in the assay on MDA-MB-435, 6.3 µM (inactive); in the assay with EKVX, 5.45 µM (inactive); with KM-20L2, 3.66 µM (inactive); in the assay on CAKI-1 it was 0.641 µM (active); in the assay with 786-0 it was 8.53 µM (inactive). Besides, the GI50 in the assay with T47D was 1.82 µM (inactive); in the assay with HL-60, 334 nM (active).

`COC(=O)n1c(C[P+](c2ccccc2)(c2ccccc2)c2ccccc2)cc2ccccc21`: the GI50 was 13.3 µM with HCT-15; 2.67 µM (inactive) with SR; 1.11 µM (active) with HCT-116; 2.29 µM (inactive) in the assay with SF-295; 3.47 µM (inactive) in the assay with Malme-3M; 1.73 µM (inactive) with NCI-H226. In addition, the GI50 in the assay with UACC-62 is 2.77 µM (inactive); in the assay on SNB-75, 3.94 µM (inactive); in the assay with OVCAR-5, 2.11 µM (inactive); with IGROV-1, 0.664 µM (active); in the assay on OVCAR-3 it was 1.01 µM (active); in the assay with K562, 0.438 µM (active). Further, the GI50 is 0.774 µM (active) with EKVX; 1.94 µM (inactive) in the assay with KM-20L2; 2.06 µM (inactive) in the assay with CAKI-1; 2.41 µM (inactive) in the assay with 786-0; 869 nM (active) in the assay on HL-60.

For the molecule `CCOC(=O)C(N)CSC(=O)NC` (stereo not given), the GI50 in the assay on HCT-15 was 63 µM; in the assay with SR it was 45.1 µM (inactive); in the assay with HCT-116, > 89.7 µM (inactive); with SF-295 it was 258 µM (inactive); with Malme-3M, 117 µM (inactive); in the assay on MCF7, 93.5 µM (inactive). The GI50 in the assay on NCI-H226 is 247 µM (inactive); in the assay with UACC-62 it was 81.8 µM (inactive); in the assay with SNB-75, 243 µM (inactive); with OVCAR-5, 350 µM (inactive); with IGROV-1, 155 µM (inactive); with OVCAR-3, 96.6 µM (inactive). Besides, the GI50 in the assay with K562 is 45.3 µM (inactive); in the assay with MDA-MB-435, 45 µM (inactive); in the assay with EKVX it was 269 µM (inactive); in the assay with KM-20L2, 171 µM (inactive); in the assay with CAKI-1, 104 µM (inactive); in the assay on 786-0, 73.6 µM (inactive). Also, the GI50 in the assay with T47D was 133 µM (inactive); with HL-60, 74000 nM (inactive).

With `COC(=O)C12Oc3ccc(-c4ccc5c(c4O)C(=O)C4=CCC(C)C(O)C4(C(=O)OC)O5)c(O)c3C(=O)C1=CCC(C)C2O` (stereo not given), the GI50 in the assay on HCT-15 was 1.08 µM; in the assay on SR it was 0.843 µM (active); with HCT-116, 0.925 µM (active); in the assay with SF-295, 2.02 µM (inactive); with Malme-3M, 1.53 µM (inactive); in the assay on NCI-H226 it was 2.09 µM (inactive). The GI50 is 1.29 µM (inactive) in the assay on UACC-62; 6.22 µM (inactive) with SNB-75; 2.13 µM (inactive) with OVCAR-5; 1.62 µM (inactive) in the assay on IGROV-1; 1.36 µM (inactive) in the assay on OVCAR-3; 3.77 µM (inactive) in the assay on K562. Besides, the GI50 in the assay on EKVX was 1.88 µM (inactive); with KM-20L2, 1.44 µM (inactive); in the assay with CAKI-1 it was 2.07 µM (inactive); in the assay on 786-0, 1.53 µM (inactive); with HL-60 it was 935 nM (active).

As to `O=c1[nH]c(-c2ccc(-c3nc4cc([N+](=O)[O-])ccc4c(=O)[nH]3)cc2)nc2cc([N+](=O)[O-])ccc12`, the GI50 is above 100 µM in the assay on HCT-15; > 100 µM (inactive) in the assay on SR; > 100 µM (inactive) with HCT-116; > 100 µM (inactive) with SF-295; > 100 µM (inactive) with Malme-3M; > 100 µM (inactive) in the assay with NCI-H226. Moreover, the GI50 in the assay on UACC-62 was > 100 µM (inactive); in the assay on SNB-75 it was 42.1 µM (inactive); in the assay with OVCAR-5, > 100 µM (inactive); in the assay with IGROV-1 it was > 100 µM (inactive); in the assay on OVCAR-3 it was > 100 µM (inactive); in the assay on K562, > 100 µM (inactive). The GI50 in the assay on EKVX was > 100 µM (inactive); with KM-20L2 it was > 100 µM (inactive); in the assay with CAKI-1, > 100 µM (inactive); in the assay with 786-0, 72.9 µM (inactive); in the assay on HL-60 it was > 100000 nM (inactive).

Values taken from ChEMBL document CHEMBL1201862, “PubChem BioAssay data set” (2004).
